This note sets out measurements from patent publication US10758609B2, “Cross-reactive T-cell epitopes of HIV, SIV, and FIV for vaccines in humans and cats” (priority 2015, dated 2020).

Each structure is given as a SMILES string. Residues, ends and D or L forms follow the SMILES beside them.

In this series the test system is CD8^+ T cells from HIV^+ subjects. In words: FACS-based intracellular staining (ICS) for cytolysin (perforin) and cytotoxins (GrzA, GrzB) in CD8+ T cells. Particulars: HIV+ human subjects; for Cyto: CD8+ T-cell cytotoxins (perforin, GrzA & B), frequency of responders: FIV epitope peptide; for Cyto (cytolysin/cytotoxin production), frequency of responders: FIV peptides; for CyCD8: CD8+ T-cell cytolysin/cytotoxins (perforin, GrzA & B), frequency of responders: HIV-1 epitope peptide, threshold ≥0.2%. Here is the method: The overlapping peptide pools of FIV and HIV-1 structural and enzyme proteins were used to stimulate the […] (PBMC) and the T cells from HIV^+ subjects as previously described for epitope mapping of HIV-1 and FIV p24 and reverse transcriptase (RT) (Sanou et al., 2013; Roff et al., 2015). The individual peptides in those peptide pools with positive responses to either interferon-γ (IFNγ) production and/or T-cell proliferation were determined with IFNγ ELISpot analysis and CFSE-based CD3^+CD4^+ and CD3^+CD8^+ T-cell proliferation analyses followed by the FACS-based intracellular staining (ICS) for cytolysin (perforin) and cytotoxin (granzyme A [GrzA] and GrzB) (Sanou et al., 2013; Roff et al., 2015). Besides viral p24 and RT proteins, the identical approach was used to identify anti-HIV/FIV T-cell epitopes on viral matrix (MA), nucleocapsid (NC), protease (PR), RNAase, integrase (IN), surface envelope (SU Env), and transmembrane envelope (TM Env) (FIG. 12).
Since our goal is to develop HIV vaccine for human use, the HIV peptides (Table 10) counterpart of the cross-reactive FIV peptides shown in Table 9 were tested with PBMC and T cells from HIV^+ subjects. The immune functions analyzed were human IFNγ production by ELISpot, cytolysin/cytotoxin production by ICS, and CFSE-based proliferation of CD3^+CD4^+ and CD3^+CD8^+ T cells from HIV^+ subjects (Table 10, the first set of results). In addition, the Los Alamos National Laboratories (LANL) database was used to identify the HLA allele(s) of the HIV epitope sequence with CTL activity that can exist within the sequence of the conserved counterpart HIV peptide (Table 9, LANL CTL). The bold HLA class-I supertypes and the bold 2-digit alleles are those on the “Optimal CD8^+ CTL Epitopes” list and those without bold are alleles for potential CTL epitope. […] The HLA class II such as HLA-DRB1 has yet to be fully classified into supertypes, and therefore the 4-digit resolution nomenclatures for the HLA-DRB1 alleles are shown.
The threshold for positive IFNγ and IL2 ELISpot responses is ≥50 spot-forming units (SFU) per 10^6 PBMC. The threshold for CFSE-based CD4^+ and CD8^+ T-cell proliferation is ≥2% CD4^+ T-cell CFSE^low or CD8^+ T-cell CFSE^low. The threshold of FACS-based intracellular cytokine staining (ICS) is ≥0.2%. […] The nine FIV peptides in black were used in the current MAP vaccine trial, whereas the 13 peptides in blue were not used. […] The MAPs and their corresponding peptide(s) were also tested for their ability to enhance or suppress in vitro FIV infection of feline PBMC (E/S of peptides and E/S of MAP).
The counterpart HIV-1 peptides of the FIV peptides were also tested for immunogenicity using PBMC and T cells from HIV^+ human subjects. […] The HRT7-1 and HRT7-2 were also tested with cells from HIV^+ subjects on ART. The threshold for positive IFNγ ELISpot response is ≥75 spot-forming units (SFU) per 10^6 PBMC. The threshold for CFSE-based CD4^+ (CD4^+ T) and CD8^+ (CD8^+ T) T-cell proliferation is ≥2% CD4^+ T-cell CFSE^low or CD8^+ T-cell CFSE^low. The threshold of intracellular cytokine staining (ICS) of FACS-based cytolysin (perforin) and cytotoxins (granzymes A and B) in CD4^+ T cells (CyCD4) and CD8^+ T cells (CyCD8) is ≥0.2%. […] The nine HIV-1 peptides in black are the counterpart FIV peptides used in the current MAP vaccine trial, whereas the 13 peptides in blue were not.

As to `CC[C@H](C)[C@H](N)C(=O)N[C@@H](CC(=O)O)C(=O)N[C@@H](Cc1ccccc1)C(=O)N[C@@H](CCCNC(=N)N)C(=O)N[C@H](C(=O)N[C@@H](CC(C)C)C(=O)N[C@@H](CC(N)=O)C(=O)N[C@@H](CCCCN)C(=O)N[C@@H](CC(C)C)C(=O)N[C@H](C(=O)N[C@@H](CC(=O)O)C(=O)N[C@@H](CCCCN)C(=O)NCC(=O)N[C@@H](C)C(=O)O)[C@@H](C)O)C(C)C` [FRT3-5] (H-IDFRVLNKLTDKGA-OH; N-terminus and C-terminus assumed), the “Cyto: CD8+ T-cell cytotoxins (perforin, GrzA & B), frequency of responders” value (shortened to “Cyto: CD8+ T-cell cytotoxins”) was “+++ (41%-54% (+++))”.
Turning to `CC[C@H](C)[C@H](NC(=O)[C@H](CCCNC(=N)N)NC(=O)[C@H](CC(C)C)NC(=O)[C@H](CO)NC(=O)[C@H](CCC(=O)O)NC(=O)[C@H](CCC(N)=O)NC(=O)[C@H](CCC(N)=O)NC(=O)[C@H](CCSC)NC(=O)[C@H](Cc1ccc(O)cc1)NC(=O)[C@H](CC(C)C)NC(=O)[C@H](CCC(=O)O)NC(=O)[C@@H](N)Cc1ccc(O)cc1)C(=O)N[C@@H](CCC(N)=O)C(=O)N[C@@H](CC(=O)O)C(=O)N[C@@H](CCCNC(=N)N)C(=O)O` [FIN7-1] (H-YELYMQQESLRIQDR-OH; N-terminus and C-terminus assumed), the “Cyto: CD8+ T-cell cytotoxins” value is given as “++ (26%-40% (++))” and the “Cyto (cytolysin/cytotoxin production), frequency of responders” value (from here on “Cyto (cytolysin/cytotoxin production)”) is listed as “++ (25.1%-40% (++))”.
For `CSCC[C@H](NC(=O)[C@H](CCCNC(=N)N)NC(=O)[C@H](C)NC(=O)[C@@H]1CCCN1C(=O)[C@H](C)NC(=O)[C@@H](N)Cc1ccccc1)C(=O)N[C@@H](CCC(N)=O)C(=O)N[C@@H](CS)C(=O)N[C@@H](CCCNC(=N)N)C(=O)N[C@@H](C)C(=O)N[C@@H](Cc1c[nH]c2ccccc12)C(=O)N[C@@H](Cc1ccc(O)cc1)C(=O)N[C@@H](CC(C)C)C(=O)N[C@@H](CCC(=O)O)C(=O)N[C@@H](C)C(=O)O` [Fp9-3] (H-FAPARMQCRAWYLEA-OH), in that order: “+++ (41%-54% (+++))” and “+++ (40.1%-54% (+++))”.
`CC(C)C[C@H](NC(=O)[C@H](Cc1ccc(O)cc1)NC(=O)[C@H](CC(C)C)NC(=O)[C@H](CCCCN)NC(=O)[C@@H](NC(=O)[C@H](CCC(=O)O)NC(=O)[C@H](C)NC(=O)[C@@H](NC(=O)[C@H](CC(N)=O)NC(=O)[C@H](CCC(N)=O)NC(=O)[C@H](CCC(=O)O)NC(=O)[C@H](CCC(N)=O)NC(=O)[C@@H](N)CC(=O)O)[C@@H](C)O)C(C)C)C(=O)N[C@@H](CCCCN)C(=O)O` [Fp14-1] (H-DQEQNTAEVKLYLK-OH): the “Cyto: CD8+ T-cell cytotoxins” value is “+++ (41%-54% (+++))” and the “Cyto (cytolysin/cytotoxin production)” value is “+++ (40.1%-54% (+++))”.
Turning to `CC(C)C[C@H](NC(=O)[C@@H](NC(=O)[C@H](Cc1c[nH]c2ccccc12)NC(=O)CNC(=O)[C@H](CCC(N)=O)NC(=O)[C@@H]1CCCN1C(=O)[C@H](CC(C)C)NC(=O)[C@H](CO)NC(=O)[C@H](CS)NC(=O)[C@H](Cc1c[nH]c2ccccc12)NC(=O)[C@@H](NC(=O)[C@H](Cc1ccc(O)cc1)NC(=O)[C@H](CCCNC(=N)N)NC(=O)[C@H](CCCNC(=N)N)NC(=O)CN)C(C)C)C(C)C)C(=O)O` [FRT7-1] (H-GRRYVWCSLPQGWVL-OH), the “Cyto: CD8+ T-cell cytotoxins” value is “+++ (41%-54% (+++))” and the “Cyto (cytolysin/cytotoxin production)” value is reported as “+++ (40.1%-54% (+++))”.
Take `CC[C@H](C)[C@H](NC(=O)[C@@H](N)CCCCN)C(=O)N[C@@H](CCCNC(=N)N)C(=O)N[C@@H](CC(C)C)C(=O)N[C@@H](CCCNC(=N)N)C(=O)N1CCC[C@H]1C(=O)NCC(=O)NCC(=O)N[C@@H](CCCCN)C(=O)N[C@@H](CCCCN)C(=O)N[C@@H](CCCCN)C(=O)N[C@@H](Cc1ccc(O)cc1)C(=O)O` [HMA1]: the “CyCD8: CD8+ T-cell cytolysin/cytotoxins (perforin, GrzA & B), frequency of responders” value (from here on “CyCD8: CD8+ T-cell cytolysin/cytotoxins”) is recorded as “− (0%-1.4% (−))”.
On to `CC[C@H](C)[C@H](NC(=O)[C@H](CCCCN)NC(=O)[C@@H](NC(=O)[C@@H](NC(=O)[C@@H](NC(=O)[C@H](CC(C)C)NC(=O)[C@@H]1CCCN1C(=O)[C@H](CCCNC(=N)N)NC(=O)[C@H](CCC(N)=O)NC(=O)[C@H](Cc1c[nH]c2ccccc12)NC(=O)[C@H](CC(C)C)NC(=O)[C@@H](N)[C@@H](C)O)C(C)C)[C@@H](C)O)[C@@H](C)CC)C(=O)NCC(=O)NCC(=O)O` [HPR1], for which the “CyCD8: CD8+ T-cell cytolysin/cytotoxins” value is recorded as “− (0%-1.4% (−))”.
For `CC(C)C[C@H](NC(=O)[C@@H](NC(=O)[C@H](C)NC(=O)[C@@H](NC(=O)[C@@H](NC(=O)[C@H](CC(N)=O)NC(=O)[C@H](Cc1ccc(O)cc1)NC(=O)[C@H](CC(C)C)NC(=O)[C@H](CO)NC(=O)[C@H](CCCNC(=N)N)NC(=O)[C@H](CC(C)C)NC(=O)[C@H](CCC(=O)O)NC(=O)[C@H](CCC(=O)O)NC(=O)[C@H](CO)NC(=O)CN)[C@@H](C)O)C(C)C)[C@@H](C)O)C(=O)O` [HMA2], the “CyCD8: CD8+ T-cell cytolysin/cytotoxins” value was “− (0%-1.4% (−))”.
Regarding `CC[C@H](C)[C@H](NC(=O)[C@H](CC(C)C)NC(=O)[C@@H]1CCCN1C(=O)[C@H](CO)NC(=O)[C@H](CC(C)C)NC(=O)[C@@H](NC(=O)[C@H](Cc1c[nH]c2ccccc12)NC(=O)CNC(=O)[C@H](CCC(N)=O)NC(=O)[C@@H]1CCCN1C(=O)[C@H](CC(C)C)NC(=O)[C@H](CO)NC(=O)[C@@H](N)CS)C(C)C)C(=O)N[C@@H](Cc1ccc(O)cc1)C(=O)O` [FRT7-2] (H-CSLPQGWVLSPLIY-OH), the “Cyto: CD8+ T-cell cytotoxins” value is recorded as “++++ (>54% (++++))” and the “Cyto (cytolysin/cytotoxin production)” value is “++++ (>54% (++++))”.
On to `CC[C@H](C)[C@H](NC(=O)[C@H](CO)NC(=O)[C@H](CC(C)C)NC(=O)[C@H](CO)NC(=O)[C@H](CCC(N)=O)NC(=O)[C@H](CCCCN)NC(=O)[C@H](CC(C)C)NC(=O)[C@H](Cc1ccc(O)cc1)NC(=O)[C@H](CC(C)C)NC(=O)[C@@H](N)CCCCN)C(=O)N[C@@H](C)C(=O)N[C@@H](CC(N)=O)C(=O)N[C@@H](C)C(=O)O` [Fp14-4] (H-KLYLKQSLSIANA-OH; N-terminus and C-terminus assumed), for which the “Cyto: CD8+ T-cell cytotoxins” value is recorded as “++++ (>54% (++++))” and the “Cyto (cytolysin/cytotoxin production)” value is given as “++++ (>54% (++++))”.
For `CC[C@H](C)[C@H](NC(=O)[C@H](CO)NC(=O)[C@H](CC(C)C)NC(=O)[C@H](CO)NC(=O)[C@H](CCC(N)=O)NC(=O)[C@H](CCCCN)NC(=O)[C@H](CC(C)C)NC(=O)[C@H](Cc1ccc(O)cc1)NC(=O)[C@H](CC(C)C)NC(=O)[C@H](CCCCN)NC(=O)[C@@H](NC(=O)[C@H](CCC(=O)O)NC(=O)[C@H](C)N)C(C)C)C(=O)N[C@@H](C)C(=O)O` [Fp14-3] (H-AEVKLYLKQSLSIA-OH; N-terminus and C-terminus assumed), the “Cyto: CD8+ T-cell cytotoxins” value was “++++ (>54% (++++))” and the “Cyto (cytolysin/cytotoxin production)” value is “++++ (>54% (++++))”.
As for `CC[C@H](C)[C@H](N)C(=O)N1CCC[C@H]1C(=O)N[C@H](C(=O)NCC(=O)N[C@@H](CCC(=O)O)C(=O)N[C@H](C(=O)N[C@@H](Cc1ccc(O)cc1)C(=O)N[C@@H](CCCCN)C(=O)N[C@@H](CCCNC(=N)N)C(=O)N[C@@H](Cc1c[nH]c2ccccc12)C(=O)N[C@H](C(=O)N[C@H](C(=O)N[C@@H](CC(C)C)C(=O)NCC(=O)O)[C@@H](C)CC)[C@@H](C)CC)[C@@H](C)CC)C(C)C` [Hp9-3 (10-3)], the “CyCD8: CD8+ T-cell cytolysin/cytotoxins” value is reported as “+++ (40.1%-54% (+++))”.
